Test results from patent US8920334B2, “Method of breath analysis for determining liver capacity or microcirculation using 13C-labeled methacetin substrate” (Freie Universitaet Berlin, priority 2005, dated 2014).

Experiments:
[1] = target: T1, enzyme CYP1A2 in the liver (Homo sapiens, UniProt P05177); assay: 13C-methacetin breath test (LiMAx) before and after partial liver resection; assay type: in vivo; settings: patients, mean
T1 construct: demethylated to paracetamol in a rapid one-step reaction by the enzyme CYP1A2 in the liver; from tissue; host or cells: liver of living patients (in vivo)
T1 sequence (P05177 1-516): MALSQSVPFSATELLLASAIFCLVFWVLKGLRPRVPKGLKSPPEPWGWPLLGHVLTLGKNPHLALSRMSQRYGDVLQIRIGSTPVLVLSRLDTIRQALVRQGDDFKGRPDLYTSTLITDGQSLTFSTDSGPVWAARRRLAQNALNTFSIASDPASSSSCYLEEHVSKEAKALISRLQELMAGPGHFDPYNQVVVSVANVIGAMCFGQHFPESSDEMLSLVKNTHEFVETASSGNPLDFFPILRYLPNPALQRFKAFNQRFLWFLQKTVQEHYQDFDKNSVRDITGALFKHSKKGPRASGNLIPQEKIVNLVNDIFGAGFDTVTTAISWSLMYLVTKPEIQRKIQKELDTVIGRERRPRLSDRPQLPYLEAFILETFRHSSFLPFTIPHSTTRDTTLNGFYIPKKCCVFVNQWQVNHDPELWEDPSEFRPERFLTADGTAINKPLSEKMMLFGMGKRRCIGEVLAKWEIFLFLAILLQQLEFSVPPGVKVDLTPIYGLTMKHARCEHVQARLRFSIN
Protocol: This object is achieved by an analysis method, for determining a functional parameter of an organ of a human or animal individual. According to this analysis method, the ^13CO2 content in the air exhaled by the individual is measured, the ^13CO2 in the body of the individual being formed enzymatically from a substrate that has been administered beforehand to the individual, and then being exhaled by the individual. The measurement of the ^13CO2 content in the air exhaled by the individual is carried out using a suitable measurement device. The maximum reaction rate of the substrate in the body of the individual is determined via a change of the measured ^13CO2 content in the air exhaled by the individual using zero-order enzyme kinetics. The analysis method according to the invention therefore proceeds from a consideration of enzyme kinetics.
In a particularly preferred embodiment of the invention, the maximum reaction rate (LiMAx) is calculated through the converted quantity of substrate per unit of time in μg/h/kg bodyweight at variable times at which the maximum value is reached, such that genuine quantification of the maximum functional liver capacity can be made. The calculation is carried out according to the following formula (1), which describes zero-order enzyme kinetics: […]
Here, δ^13C is the difference between the ^13CO2/^12CO2 ratio of the sample and the Pee Dee Belmite (PDB) standard in delta per mil, RPDB is the ^13CO2/^12CO2 ratio of the PDB standard (0.0112375), P is the CO2 production rate (300 mmol/h×surface area of body in m^2), M is the molecular weight of the substrate, and KG is the actual bodyweight of the individual in kg.
The inundation time is preferably used to assess the microcirculation in the liver, so as to be able to detect microcirculation disturbances. Assuming the quickest possible inundation by in particular intravenous bolus injection and substrate excess and the high first-pass effect of methacetin or another substrate, the hepatic microcirculation can be assessed particularly advantageously. The inundation time needed to reach the maximum reaction rate tvmax is determined, said inundation time lengthening in the presence of microcirculation disturbances, since in this case the substrate inundation is not uniformly or completely delayed in all areas of the liver. Liver perfusion can thus be assessed.
The rapid substrate inundation required for the enzyme-kinetic evaluation is ensured by the fact that ^13C methacetin is administered intravenously in a bolus. The intravenous bolus injection ensures an immediate and complete substrate inundation in the liver. The absorption of the test substance ^13C-methacetin is no longer the step that determines the reaction rate. With the preferred dose of 2 mg methacetin per kg bodyweight, a temporary enzyme utilization is also permitted in patients with a healthy liver by a short-term substrate excess. This permits the actual quantitative expressiveness, since zero-order enzyme kinetics are achieved, and only this permits a statement concerning the maximum functional capacity of an enzyme system.
In the context of a prospective study, a method, which is discussed in more detail below, was used to evaluate liver function before and after partial liver resection in a number of patients: • 1. […]

[2] = cited from earlier work

SMILES | inundation time (tvmax) until maximum reaction rate ([1]; after partial liver resection) [min] | inundation time (tvmax) until maximum reaction rate ([1]; before partial liver resection) [min] | maximum functional liver capacity (LiMAx) ([1]; post-operative day 1 (POD1) after partial liver resection) [µg/h/kg] | maximum functional liver capacity (LiMAx) ([1]; post-operative day 10 (POD10) after partial liver resection) [µg/h/kg] | maximum functional liver capacity (LiMAx) ([1]; pre-operative (before partial liver resection), intravenous 13C-methacetin solution) [µg/h/kg] | solubility ([2]; in water or in an aqueous buffer) | stability of aqueous solution (crystallization) ([2]; usually aqueous solution)
COc1ccc(NC(C)=O)cc1 [^13C-methacetin] | 53.5 ± 7.51 | 11.9 ± 2.17 | 141 ± 13 | 249 ± 17 | 301 ± 24 | – | –
COc1ccc(NC(C)=O)cc1 [methacetin] | – | – | – | – | – | extremely sparingly soluble | crystallizes out of a usually aqueous solution within a period of hours to days
